The subject of this test is HT-29. Put plainly: Potentiation of cisplatin-induced cytotoxicity in human HT-29 cells. The class given is functional, cell-based.

Calls of active or inactive are those of the source. The rule behind the calls is not given here.

`CC1(C)CC[C@]2(C(=O)O[C@@H]3O[C@H](CO)[C@@H](O)[C@H](O)[C@H]3O)CC[C@]3(C)C(=CC[C@@H]4[C@@]5(C)CC[C@H](O[C@@H]6O[C@H](C(=O)O)[C@@H](O)[C@@H]7OC(O)(C(=O)O)C(OCC(=O)O)O[C@@H]67)C(C)(C)[C@@H]5CC[C@]43C)[C@@H]2C1` (stereo partly specified): the result was inactive.

The values above are taken from ChEMBL document CHEMBL1155711, “Bidentatoside I, a new triterpene saponin from Achyranthes bidentata” (J Nat Prod, 2001).
